Earlier results in patent publication US20090118352A1, “Broad spectrum microbicidal and spermicidal compositions and methods” (ESAWTECH, LTD., priority 2007, published 2009).

Legend:
[1] = system: epithelial cells in the vagina
[2] = system: HIV; details: phase III trial
[3] = system: HIV; details: clinical trial in women, stopped 2007

Substance	effect on epithelial cells in the vagina [1]	HIV transmission rate versus placebo ([2]; N-9 group)	efficacy in preventing HIV transmission ([2]; UN Joint Programme on HIV/AIDS, 2002)	HIV infections, active group versus placebo group [3]
NONOXYL-9 [N-9]	can disrupt epithelial cells in the vagina	marginally higher	no efficacy	
cellulose sulfate				higher number of HIV infections in the active group compared with the placebo group
